Here are results for 84 molecules from PubChem BioAssay AID1645868 (Buhrlage Lab, Dana-Farber Cancer Institute and Novartis …, 2021).

SMILES strings stand for the structures. The source made the active and inactive calls.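 The calls were made as follows: active = maximal percent inhibition of the deubiquitinase OTUD3 of at least 30% across the tested doses; inactive = the rest.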

This assay addresses OTU domain-containing protein 3 (Homo sapiens) (UniProt Q5T2D3). Briefly: Validation of screening hits, potency titration, in vitro enzymatic, OTU domain-containing protein 3 DUB inhibitors (AID 1645868). Particulars: purified OTUD3, ubiquitin-rhodamine cleavage fluorescence, 2 h.

Sequence of OTU domain-containing protein 3 (Homo sapiens) (Q5T2D3 whole entry, looked up, the tested form may be a part): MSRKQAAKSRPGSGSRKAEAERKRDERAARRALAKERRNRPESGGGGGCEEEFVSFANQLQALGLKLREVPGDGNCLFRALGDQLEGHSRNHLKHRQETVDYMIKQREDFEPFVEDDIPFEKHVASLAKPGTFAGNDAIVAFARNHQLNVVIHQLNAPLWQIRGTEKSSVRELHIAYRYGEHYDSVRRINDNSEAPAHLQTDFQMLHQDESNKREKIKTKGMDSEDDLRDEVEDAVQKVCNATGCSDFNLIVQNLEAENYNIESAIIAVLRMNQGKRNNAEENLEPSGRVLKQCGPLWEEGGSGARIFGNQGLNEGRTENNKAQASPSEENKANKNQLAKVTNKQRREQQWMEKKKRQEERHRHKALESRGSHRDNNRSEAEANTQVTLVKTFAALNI

The term IC50 denotes the concentration needed to halve the response being measured. Take `Cc1ccc(C(=O)NCc2ccc(C(=O)Nc3cccc(C)c3)o2)cc1`: the IC50 was > 50 µM (inactive). The same measure for `COCCn1ccc2nc(C)c(C(=O)Nc3ccc4c(c3)OCCO4)cc2c1=O`: > 50 µM (inactive); for `O=C1c2ccccc2-n2c1nc1ccccc1c2=O`: > 50 µM (inactive). The result for `Cc1ccc(CN2C(=O)c3cc4ccccc4n3CC2(C)C(=O)NCc2ccccc2)o1` (centres undefined) reads > 50 µM (inactive); that for `Nc1c(-c2ccc(Cl)cc2)cnc2nc(Sc3ncc(C(F)(F)F)cc3Cl)nn12`, > 50 µM (inactive); that for `COc1cccc(NC(=O)CCc2c(C)nn(-c3cc(N4CCCCC4)ncn3)c2C)c1`, > 50 µM (inactive). The same measure for `Cc1c(-c2nsc(NC(=O)c3ccc(Cl)cc3)n2)nnn1-c1ccccc1F`: 18.9 µM.

In the case of `CCc1ccc(-c2nc(SCC(=O)Nc3ccc4[nH]c(=O)[nH]c4c3)n[nH]2)cc1`, the half-inhibitory concentration (IC50) is 40.7 µM.

`O=C1CC(c2ccco2)Cc2[nH]c(=O)c(-c3nc(-c4ccc(Cl)cc4)cs3)cc21` (centres undefined): the IC50 is > 50 µM (inactive).

Turning to `COc1ccc(C)cc1NC(=O)C1CC(=O)Nc2nc3ccccc3n21` (centres undefined), the half-maximal inhibitory concentration (IC50) is 40.2 µM. The same measure for `Cc1nc(CN2CCn3c(Cn4cccn4)cnc3C2C)cs1` (centres undefined): > 50 µM (inactive).

On to `O=C(CCSc1ccc(Cl)cc1)c1cccs1`, for which the 50% inhibitory concentration (IC50) was 21.5 µM. As to `Cc1ccccc1Cc1nc(-c2ccc(=O)[nH]c2)no1`, the IC50 was > 50 µM (inactive). Consider `Cc1ccccc1NC(=O)Nc1ccccc1OCc1cc(=O)n2cccc(C)c2n1`, for which the IC50 is 4.24 µM.

Consider `NC(=O)c1ccc(NC(=O)Cc2cc(-c3ccc(Cl)cc3)on2)cc1`, for which the IC50 was > 50 µM (inactive).

For the molecule `Cc1cc(C(=O)NC2(O)C(=O)c3ccccc3C2=O)n(C)n1`, the concentration for half-maximal inhibition (IC50) was 47.2 µM. The result for `CN=C(N)NCCC/C=C/CCCC(C)CC(C)C1OC(=O)/C=C/C(C)C(O)CC(O)C(C)C(O)CCC(C)C(O)CC2(O)OC(CC(OC(=O)CC(=O)O)CC(O)CC(O)C(C)C(O)/C=C/C1C)CC(O)C2O` (centres undefined) reads > 50 µM (inactive); that for `O=C(NCCc1ccccc1)c1nnn(Cc2cccc(Cl)c2)c1-n1cccc1`, > 50 µM (inactive); that for `COc1ccc(CCNC(=O)CSc2cn(CCNC(=O)c3ccc(F)cc3)c3ccccc23)cc1OC`, 37.7 µM. The result for `CC(=O)N1CCOc2cc(S(=O)(=O)N3CCCC3c3cc(C)no3)ccc21` (centres undefined) reads > 50 µM (inactive); that for `COc1ccc(CCNC(=O)c2ccc3ccccc3c2)cc1OC`, > 50 µM (inactive).

`COCCNC(=O)c1ccn(-c2ccc3ccc(-c4cnn(C)c4)cn23)n1`: the IC50 was > 50 µM (inactive). Take `COCCCN1CCS(=O)(=O)c2c(Cl)c(F)nc(Oc3ccc(C#N)cc3)c21`: the IC50 is > 50 µM (inactive). The same measure for `COC(=O)C1C(c2ccc(Cl)cc2Cl)C2(C(=O)c3ccccc3C2=O)C2C=Cc3ccccc3N12` (centres undefined): > 50 µM (inactive).

Take `Cc1cc(NC(=O)c2nnn(-c3ccccc3Cl)c2C)no1`: the IC50 is > 50 µM (inactive).

Turning to `O=C(NCc1ccc(F)cc1)C1CCCN(c2cnc3nccnc3c2)C1` (centres undefined), the IC50 was > 50 µM (inactive). The result for `O=C(Nc1nnc(C2CC2)s1)c1ccc(OCC2CCCO2)cc1` (centres undefined) reads > 50 µM (inactive); that for `CCOc1ccc(Nc2cc(C(=O)NCCc3ccccc3)c3ccccc3n2)cc1`, 35.4 µM; that for `Cc1ccc2c(c1C)NC(=O)[C@]21[C@@H]2C(=O)N(c3cc(Cl)ccc3Cl)C(=O)[C@@H]2[C@@H]2CCCN21`, > 50 µM (inactive). The same measure for `Cc1[nH]nc(NC(=O)C2COc3ccccc3O2)c1-c1ccccc1` (centres undefined): 26.6 µM; for `CN1CCN(C(=O)c2cc(-c3ccn(-c4ccccc4)n3)n3ccccc23)CC1`: > 50 µM (inactive). The result for `CN1CCN(c2ncnc3c2oc2ccc(Cl)cc23)CC1` reads > 50 µM (inactive); that for `O=c1ncn(Cc2ccc3c(c2)OCO3)cc1-c1ncc(C(F)(F)F)cc1Cl`, > 50 µM (inactive). Consider `COc1ccc(-c2nonc2NC(=O)C(c2ccccc2)c2ccccc2)cc1OC`, for which the IC50 was > 50 µM (inactive). The result for `CCCn1c(=O)n(CC(=O)c2ccccc2F)c2c(C(N)=O)nc(-c3ccco3)nc21` reads > 50 µM (inactive); that for `Cc1cc(/C=C2/C(=N)N3C(c4ccccc4)=CSC3=NC2=O)c(C)n1-c1ccc(F)cc1`, > 50 µM (inactive). For `COc1c2nc3ccccc3oc-2cc(=O)c1OC`, the IC50 was > 50 µM (inactive).

Regarding `COc1cccc(CCNC(=O)CCn2c(=O)c(C)nc3cc(C)c(C)cc32)c1`, the IC50 is > 50 µM (inactive). Regarding `CSc1cccc(NC(=O)COc2cccc3ccccc23)c1`, the half-inhibitory concentration (IC50) was 39.6 µM.

Turning to `Cc1cccc(NC(=O)Cn2c(N3CCOCC3)nc3cc(C)n(C)c3c2=O)c1`, the IC50 is 40.6 µM. The same measure for `CCN(CC)c1cc(C)c2cc(NC(=O)c3ccncc3)ccc2n1`: > 50 µM (inactive); for `COc1cc2c(c3oc4cccc(O)c4c(=O)c13)C1C=COC1O2` (centres undefined): > 50 µM (inactive).

For `CCc1ccc(-n2c(=O)c3ccccc3n(CC(=O)NCCC3=CCCCC3)c2=O)cc1`, the IC50 is 21.3 µM. The result for `CC(=O)c1ccc(NC(=O)c2ccc(N3CCCCS3(=O)=O)cc2Cl)cc1` reads 37 µM; that for `COc1cc(OC)c2c(c1)C(=O)C1=C(COC(C)(O)C1)C2=O` (centres undefined), > 50 µM (inactive); that for `Cc1cnnn1-c1ccc(C(=O)Nc2cc(Cl)ccc2Cl)cc1`, > 50 µM (inactive). The result for `Cc1nc2ccccc2nc1SCC(=O)Nc1ccc2c(c1)OCO2` reads > 50 µM (inactive); that for `CCOc1ccc(-c2nc(C#N)c(N3CCN(C(=O)c4ccccc4C)CC3)o2)cc1`, 43.4 µM; that for `O=C1N(Cc2ccc(F)cc2)CCN1c1ccc(C(F)(F)F)cn1`, > 50 µM (inactive). The result for `O=C(CC1C(=O)N(Cc2cccnc2)c2nc3ccccc3n21)Nc1cccc2ccccc12` (centres undefined) reads > 50 µM (inactive); that for `O=C(Nc1ccc2c(c1)OCCO2)C1CCN(C(=O)c2ccccc2)CC1`, > 50 µM (inactive).

Consider `O=C(Nc1ccc2c(c1)OCCO2)Nc1nnc(CC(=O)N2CCCCC2)s1`, for which the IC50 is > 50 µM (inactive). For the molecule `COc1cc(O)c2c(O)c3c(cc2c1)CC(C)OC3=O` (centres undefined), the IC50 was > 50 µM (inactive). The same measure for `Cc1cnc2nc3c(cc2c1)CN(S(=O)(=O)c1cc(F)ccc1C)CC3`: > 50 µM (inactive); for `Cc1ccc(NC(=O)c2sc3ncn(CC(=O)N4CCN(c5ccccn5)CC4)c(=O)c3c2C)c(Br)c1`: 37.9 µM. The same measure for `FC(F)(F)c1ccccc1CCN1CCc2nc3ncc(Cl)cc3cc2C1`: > 50 µM (inactive); for `C=C1CCC2[C@](C)(CCC[C@]2(C)C(=O)OC)[C@H]1CCc1ccoc1C[N+](C)(C)Cc1ccccc1` (some centres undefined): > 50 µM (inactive); for `N[C@@H](Cc1ccccc1)C(=O)N1CCC2(CC1)CN(C(=O)c1ccc(Cl)cc1)CCO2`: > 50 µM (inactive).

Take `Cc1ccc2c(c1)c(=O)c(C(=O)c1ccc(F)cc1)cn2CC(=O)Nc1ccc2c(c1)OCCO2`: the IC50 is > 50 µM (inactive). The result for `Cc1cc(=O)c2c(O)oc(O)c3c(O)cc(=O)c1c32` reads 33.9 µM; that for `COCCN(C1CCN(CCc2ccc(Cl)cc2)CC1)S(=O)(=O)c1cccc2cccnc12`, > 50 µM (inactive). The result for `O=C(Nc1cccc(F)c1)c1ncoc1-c1ccco1` reads > 50 µM (inactive); that for `Cc1cc(C(=O)Nc2ccc3c(c2)OCCO3)no1`, > 50 µM (inactive).

With `Cc1nn(-c2ccc([N+](=O)[O-])cc2)c(C)c1-c1nc2ccccc2[nH]1`, the IC50 is 24.3 µM. The result for `Cn1c(=O)[nH]c(=O)c2c1nc1n(CCc3ccccc3)c(-c3ccccc3)cn21` reads > 50 µM (inactive). Turning to `CCCN1CCN(C(=O)c2cc(NC(=O)C3CCC3)cc3nc(C)ccc23)CC1`, the IC50 was > 50 µM (inactive). The same measure for `COc1ccc(-c2nc(Cn3nnc(C(=O)Nc4ccc(C)cc4C)c3N)c(C)o2)cc1`: > 50 µM (inactive). The same measure for `CN1CCN(C(=O)c2ccn(-c3ccc4ccc(-c5cnn(C)c5)cn34)n2)CC1`: > 50 µM (inactive). With `Cc1ccc(C2c3c(-c4ccccc4O)n[nH]c3C(=O)N2Cc2ccco2)cc1` (centres undefined), the IC50 is 30.4 µM.

On to `CN(C)S(=O)(=O)c1ccc(N2CCCC2)c(C(=O)Nc2ccc(-c3cn4ccsc4n3)cc2)c1`, for which the IC50 was > 50 µM (inactive). The same measure for `CC(=O)c1cccc(NC(=O)c2ccc(CN(c3ccc(C)c(C)c3)S(C)(=O)=O)cc2)c1`: > 50 µM (inactive). With `CCCC(=O)N1CCC2(CC1)Nc1ccccc1NC2=O`, the IC50 was > 50 µM (inactive). For the molecule `N#Cc1ccccc1Cn1c(=O)n(Cc2ccco2)c(=O)c2ccccc21`, the IC50 was > 50 µM (inactive). The same measure for `Cc1ccc(Nc2nc(Nc3cccc(Cl)c3)nc3nccnc23)cc1`: > 50 µM (inactive). Regarding `CCOC(=O)C1C(c2ccc(Br)cc2)C2(C(=O)c3ccccc3C2=O)C2C=Cc3ccccc3N12` (centres undefined), the IC50 is > 50 µM (inactive). The result for `COc1ccc(Cl)cc1N1C(=O)[C@H]2[C@@H](C1=O)[C@]1(C(=O)Nc3c(C)cc(C)cc31)N1CCC[C@@H]21` reads > 50 µM (inactive); that for `Cc1ccc(Cl)cc1NC(=O)COC(=O)c1ccc2ccccc2n1`, > 50 µM (inactive). The same measure for `Oc1sc(C=Nc2cc(Cl)ccc2Cl)c2ccccc12`: > 50 µM (inactive); for `O=C(Nc1ccccc1Br)c1ccn(COc2ccccc2F)n1`: 46.7 µM; for `CC(C)(C)C(=O)C1C2C(=O)N(c3ccc4c(c3)OCO4)C(=O)C2C2c3ccccc3C=CN12` (centres undefined): > 50 µM (inactive). The same measure for `CCC1=C(c2ccc(C)cc2)S(=O)(=O)NC1=NCC(=O)NC(C)c1ccccc1` (centres undefined): 20.5 µM; for `CC1(O)CC(=O)c2c(cc3cc(O)cc(O)c3c2O)C1` (centres undefined): 0.188 µM; for `CN(C)CCc1cc2c(c3c1ccc1ccccc13)OCO2`: > 50 µM (inactive). As for `CC1Oc2ccccc2C(=O)N(Cc2ccc([N+](=O)[O-])cc2)C1=O` (centres undefined), the IC50 is > 50 µM (inactive).
